Measured values from ChEMBL document CHEMBL3639064, “Piperazine compound capable of inhibiting prostaglandin D synthase” (2014).

What follows are molecules tested against Hematopoietic prostaglandin D synthase (Homo sapiens, UniProt O60760) (assay: Inhibition Assay: The test was carried out according to the method of Urade, Y. et al. (J. Biol. Chem., 262, 3820-3825, (1987)). More specifically, the reaction mixture (49 uL) containing 100 mM Tris-HCl (pH 8.0), 1 mM reduced glutathione, 0.1 mg/mL gamma-globulin, and human H-PGDS (q.s.), and a compound (final concentration: 0.01-100 uM) was preincubated at 25 C. for 5 minutes. Note that a DMSO solution (final concentration: 1%) was added to the solvent control group. Subsequently, 1 uL of [14C] prostaglandin H2 (final concentration: 10 uM) was added to start the reaction. One minute after the start of the reaction, 250 uL of a reaction stopper solution (diethylether/methanol/1 M citric acid (30/4/1) at a temperature of -20 C. was added to stop the reaction. After the reaction was stopped, 50 uL of the upper layer portion (organic solvent phase) was applied to a TLC plate and developed at -20 C. for 45 minutes.).
Chain of Hematopoietic prostaglandin D synthase (O60760 whole entry): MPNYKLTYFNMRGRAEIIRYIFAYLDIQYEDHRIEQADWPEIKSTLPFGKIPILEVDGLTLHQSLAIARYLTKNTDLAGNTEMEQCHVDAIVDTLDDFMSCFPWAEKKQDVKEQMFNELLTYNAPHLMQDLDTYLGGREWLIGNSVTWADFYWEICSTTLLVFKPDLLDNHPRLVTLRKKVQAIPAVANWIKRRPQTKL

Row | SMILES | IC50
1 | Cn1cccc1C(=O)N1CCN(C(=O)Nc2ccc(N3CCC(C(=O)N4CCCCC4)CC3)cc2)CC1 | 32 nM
2 | Cn1cccc1C(=O)N1CCN(C(=O)Nc2ccc(N3CCC(C(=O)NCc4cccnc4)CC3)cc2)CC1 | 60 nM
3 | Cn1cccc1C(=O)N1CCN(C(=O)Nc2ccc(N3CCC(CN4CCOCC4)CC3)cc2)CC1 | 54 nM
4 | CN1CCN(C(=O)C2CCN(c3ccc(NC(=O)N4CCN(C(=O)c5cccn5C)CC4)cc3)CC2)CC1 | 60 nM
5 | Cn1cccc1C(=O)N1CCN(C(=O)Nc2ccc(N3CCC(C(=O)NCCN4CCOCC4)CC3)cc2)CC1 | 59 nM

Further lines, results first:

Row | IC50 | SMILES
6 | 37 nM | Cn1cccc1C(=O)N1CCN(C(=O)Nc2ccc(N3CCC(CCCn4ccnn4)CC3)cc2)CC1
7 | 85 nM | Cc1nc(C)n(CCC2CCN(c3ccc(NC(=O)N4CCN(C(=O)c5cccn5C)CC4)cc3)CC2)n1
8 | 40 nM | Cn1cccc1C(=O)N1CCN(C(=O)Nc2ccc(N3CCC(CCn4cccn4)CC3)cc2)CC1
9 | 43 nM | Cn1cccc1C(=O)N1CCN(C(=O)Nc2ccc(N3CCC(CCN4CCOCC4)CC3)cc2)CC1
10 | 67 nM | Cn1cccc1C(=O)N1CCN(C(=O)Nc2ccc(N3CCC(CCn4cncn4)C3)cc2)CC1 (stereo unspecified)
11 | 71 nM | Cn1cccc1C(=O)N1CCN(C(=O)Nc2ccc(N3CCC(CCn4ccnn4)CC3)cc2)CC1
